Source: patent publication US9447053B2, “Process for the preparation of calcobutrol” (Bayer Intellectual Property GMBH, priority 2009, dated 2016)

Assays:
[1] = pH-potentiometric equilibrium titrations of the ligand (butrol) in the presence of Ca2+ ions; assay type: physicochemical
Experimental: The thermodynamic stability constant of Calcobutrol and the acid dissociation constant have been determined by pH-potentiometric equilibrium titrations of the ligand (butrol) in the presence of Ca^2+ ions (at 25° C., in 0.1 N KCl) at different ratios of Ca^2+:ligand.
Based on these measured values, the distribution of calcium between free calcium ion, neutral complex (Calcobutrol, ligand has two negative charges), and anionic complex (ligand has three negative charges) can be calculated for different pH values. […] Due to this equilibrium between the calcium-containing species, preparative methods in aqueous solution will lead to some impurities.

[2] = Properties of the Calcobutrol product and of Gadovist solutions prepared from it; assay type: physicochemical; conditions: product of the process
Text: The Calcobutrol prepared in this manner is characterised by a very high quality. […] The whole process, from Gadobutrol to Calcobutrol, is characterised by a high reproducibility and workability. The total yield of 91.2% is very good. […] The sodium salt of Calcobutrol is obtained through addition of a stoichiometric amount of sodium hydroxide in situ.

## O=C([O-])CN1CCN(CC(=O)[O-])CCN(C(CO)C(O)CO)CCN(CC(=O)[O-])CC1.O=C([O-])CN1CCN(CC(=O)[O-])CCN(C(CO)C(O)CO)CCN(CC(=O)[O-])CC1.[Ca+2].[Ca+2].[Ca+2] (centres unmarked) [Calcobutrol, calcium complex of 10-(2,3-Dihydroxy-1-(hydroxymethyl)propyl)-1,4,7,10-tetraazacyclodecane-1,4,7-triacetic acid]
[1]; 25° C., 0.1 N KCl, different ratios of Ca2+:ligand, KCaL-=[CaL-]/[Ca2+][L3-]
  thermodynamic stability constant log(KCaL-): 14.67±0.02
[1]; 25° C., 0.1 N KCl, Ka=[CaL-][H+]/[CaLH]
  acid dissociation constant pKa: 3.39±0.12
[1]; calculated from measured constants, at any pH (FIG. 1)
  share of neutral complex among the calcium-containing species: ≤ 20%
[2]
  solubility in water: soluble in water
  storage stability: stable for storage
